In US12077503B2, “Substituted cyclic amides and their use as herbicides” (FMC CORPORATION, priority 2015, dated 2024):

Tests used:
Type in all cases: in vivo
[1] = test system: ducksalad (Heteranthera limosa); experiment: Test B flooded paddy test; conditions: Flood, 250 g ai/ha; 0 to 100 scale where 0 is no effect and 100 is complete control; 13 to 15 d
Procedure, shortened: (§1)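 Response scored visually against untreated controls, 0 = no effect and 100 = complete control, 13–15 d after treatment in the greenhouse. Compounds added to paddy water held 3 cm above soil surface. Treatment given at 2-leaf stage.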

[2] = test system: barnyardgrass (Echinochloa crus-galli); experiment: Test B flooded paddy test; conditions: Flood, 250 g ai/ha; 0 to 100 scale where 0 is no effect and 100 is complete control; 13 to 15 d
Procedure, shortened: as §1

rice (Oryra sativa) = experiment: Test B flooded paddy test; conditions: Flood, 250 g ai/ha; 0 to 100 scale where 0 is no effect and 100 is complete control; 13 to 15 d
Procedure, shortened: as §1

[3] = test system: sedge, umbrella (small-flower umbrella sedge, Cyperus difformis); experiment: Test B flooded paddy test; conditions: Flood, 250 g ai/ha; 0 to 100 scale where 0 is no effect and 100 is complete control; 13 to 15 d
Procedure, shortened: as §1

[4] = test system: barnyardgrass (Echinochloa crus-galli); experiment: Test A preemergence; conditions: for Plant response rating, Barnyardgrass: 125 g ai/ha, preemergence, 0 to 100 scale (0 no effect, 100 complete control); for Barnyardgrass plant response rating (0 to 100 scale, 0 is no effect, 100 is complete control): Preemergence, 500 g ai/ha, visual injury approx. 10 d
Procedure, shortened: (§2)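 Visual injury scores from 0, no effect, to 100, complete control, were assigned versus untreated controls roughly 10 d after treatment in the greenhouse. Test chemicals, formulated with surfactant in a non-phytotoxic solvent, were applied to planted seeds as a preemergence soil spray or postemergence to one- to two-leaf plants 2 to 10 cm tall, in loam–sand soil.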

[5] = test system: pigweed (Amaranthus retroflexus); experiment: Test A preemergence; conditions: Preemergence; for Plant response rating, Pigweed: 125 g ai/ha, visual injury after approximately 10 d, 0 to 100 scale where 0 is no effect and 100 is complete control; for Pigweed plant response rating (0 to 100 scale, 0 is no effect, 100 is complete control): 500 g ai/ha, visual injury approx. 10 d
[6] = test system: ragweed (common ragweed, Ambrosia elatior); experiment: Test A preemergence; conditions: Preemergence; for Plant response rating, Ragweed: 125 g ai/ha, visual injury after approximately 10 d, 0 to 100 scale where 0 is no effect and 100 is complete control; for Ragweed plant response rating (0 to 100 scale, 0 is no effect, 100 is complete control): 500 g ai/ha, visual injury approx. 10 d
Procedure, shortened: as §2

[7] = test system: ryegrass, Italian (Italian ryegrass, Lolium multiflorum); experiment: Test A preemergence; conditions: Preemergence; for Plant response rating, Ryegrass, Italian: 125 g ai/ha, visual injury after approximately 10 d, 0 to 100 scale where 0 is no effect and 100 is complete control; for Ryegrass, Italian plant response rating (0 to 100 scale, 0 is no effect, 100 is complete control): 500 g ai/ha, visual injury approx. 10 d
Procedure, shortened: as §2

[8] = test system: giant foxtail (Setaria faberii); experiment: Test A preemergence; conditions: for Plant response rating, Foxtail, Giant: 125 g ai/ha, preemergence, 0 to 100 scale (0 no effect, 100 complete control); for Foxtail, Giant plant response rating (0 to 100 scale, 0 is no effect, 100 is complete control): Preemergence, 500 g ai/ha, visual injury approx. 10 d
Procedure, shortened: as §2

Kochia (Kochia scoparia) [9] = experiment: Test A preemergence; conditions: for Plant response rating, Kochia: 125 g ai/ha, preemergence, 0 to 100 scale (0 no effect, 100 complete control); for Kochia plant response rating (0 to 100 scale, 0 is no effect, 100 is complete control): Preemergence, 500 g ai/ha, visual injury approx. 10 d
Procedure, shortened: as §2

[10] = test system: barnyardgrass (Echinochloa crus-galli); experiment: Test A postemergence; conditions: postemergence; for Barnyardgrass plant response rating: 125 g ai/ha, visual injury rating on 0 to 100 scale (0 no effect, 100 complete control), approx. 10 d; for Plant response rating, Barnyardgrass: 500 g ai/ha, 0 to 100 scale, 0 no effect, 100 complete control
Procedure, shortened: as §2

[11] = test system: pigweed (Amaranthus retroflexus); experiment: Test A postemergence; conditions: for Pigweed plant response rating: 125 g ai/ha, postemergence, visual injury rating on 0 to 100 scale (0 no effect, 100 complete control), approx. 10 d; for Plant response rating, Pigweed: Postemergence, 500 g ai/ha, 0 to 100 scale where 0 is no effect and 100 is complete control
Procedure, shortened: as §2

[12] = test system: ragweed (common ragweed, Ambrosia elatior); experiment: Test A postemergence; conditions: for Ragweed plant response rating: 125 g ai/ha, postemergence, visual injury rating on 0 to 100 scale (0 no effect, 100 complete control), approx. 10 d; for Plant response rating, Ragweed: Postemergence, 500 g ai/ha, 0 to 100 scale where 0 is no effect and 100 is complete control
Procedure, shortened: as §2

[13] = test system: ryegrass, Italian (Italian ryegrass, Lolium multiflorum); experiment: Test A postemergence; conditions: for Ryegrass, Italian plant response rating: 125 g ai/ha, postemergence, visual injury rating on 0 to 100 scale (0 no effect, 100 complete control), approx. 10 d; for Plant response rating, Ryegrass, Italian: Postemergence, 500 g ai/ha, 0 to 100 scale where 0 is no effect and 100 is complete control
Procedure, shortened: as §2

corn (Zea mays) = experiment: Test A postemergence; conditions: postemergence; for Corn plant response rating: 125 g ai/ha, visual injury rating on 0 to 100 scale (0 no effect, 100 complete control), approx. 10 d; for Plant response rating, Corn: 500 g ai/ha, 0 to 100 scale, 0 no effect, 100 complete control
Procedure, shortened: as §2

[14] = test system: wheat (Triticum aestivum); experiment: Test A postemergence; conditions: for Wheat plant response rating: 125 g ai/ha, postemergence, visual injury rating on 0 to 100 scale (0 no effect, 100 complete control), approx. 10 d; for Plant response rating, Wheat: Postemergence, 500 g ai/ha, 0 to 100 scale where 0 is no effect and 100 is complete control
Procedure, shortened: as §2

[15] = test system: giant foxtail (Setaria faberii); experiment: Test A postemergence; conditions: for Foxtail, Giant plant response rating: 125 g ai/ha, postemergence, visual injury rating on 0 to 100 scale (0 no effect, 100 complete control), approx. 10 d; for Plant response rating, Foxtail, Giant: Postemergence, 500 g ai/ha, 0 to 100 scale where 0 is no effect and 100 is complete control
Procedure, shortened: as §2

Kochia (Kochia scoparia) [16] = experiment: Test A postemergence; conditions: for Kochia plant response rating: 125 g ai/ha, postemergence, visual injury rating on 0 to 100 scale (0 no effect, 100 complete control), approx. 10 d; for Plant response rating, Kochia: Postemergence, 500 g ai/ha, 0 to 100 scale where 0 is no effect and 100 is complete control
Procedure, shortened: as §2

[17] = test system: Galium (catchweed bedstraw, Galium aparine); experiment: Test A postemergence; conditions: for Galium plant response rating: 125 g ai/ha, postemergence, visual injury rating on 0 to 100 scale (0 no effect, 100 complete control), approx. 10 d; for Plant response rating, Galium: Postemergence, 500 g ai/ha, 0 to 100 scale where 0 is no effect and 100 is complete control
Procedure, shortened: as §2

[18] = test system: blackgrass (Alopecurus myosuroides); experiment: Test A postemergence; conditions: postemergence; for Blackgrass plant response rating: 125 g ai/ha, visual injury rating on 0 to 100 scale (0 no effect, 100 complete control), approx. 10 d; for Plant response rating, Blackgrass: 500 g ai/ha, 0 to 100 scale, 0 no effect, 100 complete control
Procedure, shortened: as §2

| Compound | Plant response rating, Ducksalad [1] | Plant response rating, Barnyardgrass [2] | Plant response rating, Rice (rice (Oryra sativa)) | Plant response rating, Sedge, Umbrella [3] | Plant response rating, Barnyardgrass [4] | Barnyardgrass plant response rating (0 to 100 scale, 0 is no effect, 100 is complete control) [4] | Plant response rating, Pigweed [5] | Pigweed plant response rating (0 to 100 scale, 0 is no effect, 100 is complete control) [5] | Plant response rating, Ragweed [6] | Ragweed plant response rating (0 to 100 scale, 0 is no effect, 100 is complete control) [6] | Plant response rating, Ryegrass, Italian [7] | Ryegrass, Italian plant response rating (0 to 100 scale, 0 is no effect, 100 is complete control) [7] | Plant response rating, Foxtail, Giant [8] | Foxtail, Giant plant response rating (0 to 100 scale, 0 is no effect, 100 is complete control) [8] | Plant response rating, Kochia (Kochia (Kochia scoparia) [9]) | Kochia plant response rating (0 to 100 scale, 0 is no effect, 100 is complete control) (Kochia (Kochia scoparia) [9]) | Barnyardgrass plant response rating [10] | Plant response rating, Barnyardgrass [10] | Pigweed plant response rating [11] | Plant response rating, Pigweed [11] | other results |
| --- | --- | --- | --- | --- | --- | --- | --- | --- | --- | --- | --- | --- | --- | --- | --- | --- | --- | --- | --- | --- | --- |
| CCc1ccc(C2CNC(=O)C2C(=O)Nc2cccc(F)c2F)cc1 (stereo not drawn) [Compound 467] | 80 | 20 | 0 | 0 | 90 | 90 | 0 | 0 | 30 | 70 | 0 | 20 | 90 | 100 | 30 | 50 | 80 | 90 | 0 | 0 | Ragweed plant response rating [12]: 0; Plant response rating, Ragweed [12]: 20; Ryegrass, Italian plant response rating [13]: 0; Plant response rating, Ryegrass, Italian [13]: 40; Corn plant response rating (corn (Zea mays)): 0; Plant response rating, Corn (corn (Zea mays)): 20; Wheat plant response rating [14]: 0; Plant response rating, Wheat [14]: 30; Foxtail, Giant plant response rating [15]: 40; Plant response rating, Foxtail, Giant [15]: 80; Kochia plant response rating (Kochia (Kochia scoparia) [16]): 0; Plant response rating, Kochia (Kochia (Kochia scoparia) [16]): 0; Galium plant response rating [17]: 0; Plant response rating, Galium [17]: 0; Blackgrass plant response rating [18]: 0; Plant response rating, Blackgrass [18]: 0 |
| CCc1ccc(C2CNC(=O)C2C(=O)Nc2ccccc2S(C)(=O)=O)cc1 (stereo not drawn) [Compound 468] | 85 | 35 | 0 | 0 | 0 | 20 | 0 | 50 | 0 | 70 | 0 | 0 | 0 | 80 | 40 | 80 | 0 | 30 | 0 | 0 | Ragweed plant response rating [12]: 0; Plant response rating, Ragweed [12]: 0; Ryegrass, Italian plant response rating [13]: 0; Plant response rating, Ryegrass, Italian [13]: 0; Corn plant response rating (corn (Zea mays)): 0; Plant response rating, Corn (corn (Zea mays)): 0; Wheat plant response rating [14]: 0; Plant response rating, Wheat [14]: 20; Foxtail, Giant plant response rating [15]: 0; Plant response rating, Foxtail, Giant [15]: 0; Kochia plant response rating (Kochia (Kochia scoparia) [16]): 0; Plant response rating, Kochia (Kochia (Kochia scoparia) [16]): 20; Galium plant response rating [17]: 20; Plant response rating, Galium [17]: 30; Blackgrass plant response rating [18]: 0; Plant response rating, Blackgrass [18]: 20 |
